In the assay the test system is SW480. Kind of assay: drug sensitivity score (DSS, integrated dose-response area); higher = more sensitive (stronger viability reduction); extreme values may be limits of the assay. The essentials: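 After 7 days of induction with 0.1 µg/mL doxycycline, SW480 cells stably harbouring inducible control or SND1-targeting shRNA were plated at 1000 cells per well in 384-well plates preloaded with 525 small-molecule inhibitors at five concentrations. CellTiter-Glo viability readings were taken 72 h later. Drug sensitivity scores come from integrating the area under a fitted non-linear dose–response model.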

The mark [1] stands for this setting: shRNA: SND1 shRNA1 (SND1 silenced).
[2] abbreviates: shRNA: SND1 shRNA2 (SND1 silenced).
[3] abbreviates: shRNA: control shRNA (non-targeting).

We go through 43 compounds from the supplement of paper PMC9265050, “Inhibition of RNA Binding in SND1 Increases the Levels of miR-1-3p and Sensitizes Cancer Cells to Navitoclax” (Cancers, 2022).

In the case of `NC(=O)c1ccc(I)c([N+](=O)[O-])c1` [Iniparib], the drug sensitivity score by setting is: under setting [1], 0.4 DSS; under setting [2], 0.1 DSS; under setting [3], 0 DSS.
On the same counts, the results for `CC(C)NC[C@@H](C(=O)N1CCN(c2ncnc3c2[C@H](C)C[C@H]3O)CC1)c1ccc(Cl)cc1` [Ipatasertib] are 3.5 DSS, 9.7 DSS and 5.9 DSS.
For the compound `CCc1c2c(nc3ccc(OC(=O)N4CCC(N5CCCCC5)CC4)cc13)-c1cc3c(c(=O)n1C2)COC(=O)[C@]3(O)CC` [Irinotecan], the drug sensitivity score is, setting by setting: under setting [1], 3.2 DSS; under setting [2], 1.6 DSS; under setting [3], 5.5 DSS.
On the same counts, the results for `CCC(C)n1ncn(-c2ccc(N3CCN(c4ccc(OCC5COC(Cn6cncn6)(c6ccc(Cl)cc6Cl)O5)cc4)CC3)cc2)c1=O` (stereo not drawn) [Itraconazole] are 4.2 DSS, 0.2 DSS and 1.5 DSS.
Turning to `C/C(=C\c1csc(C)n1)[C@@H]1C[C@@H]2O[C@]2(C)CCC[C@H](C)[C@H](O)[C@@H](C)C(=O)C(C)(C)[C@@H](O)CC(=O)N1` [Ixabepilone], the drug sensitivity score turned out to be 3 DSS under setting [1], 2.7 DSS under setting [2] and 2.5 DSS under setting [3].
On the same counts, the results for `CCCNC(=O)Nc1ccc(Oc2ncnc3cc(OC)c(OC)cc23)cc1Cl` [KRN-633] are 0 DSS, 0.4 DSS and 0.6 DSS.
The like results for `O=C(c1ccc(/C=C/c2n[nH]c3ccccc23)cc1)N1CCNCC1` [KW-2449] were, in that order, 0.7 DSS, 0 DSS and 0.2 DSS.
On to `O=C(Cc1ccc(-c2ccc(OCCN3CCOCC3)cc2)cn1)NCc1ccccc1` [KX2-391], for which the drug sensitivity score was determined as 15 DSS under setting [1], 17.4 DSS under setting [2] and 18.9 DSS under setting [3].
Regarding `CN[C@@H](C)C(=O)N[C@H](C(=O)N1CCC[C@H]1c1nc(C(=O)c2ccc(F)cc2)cs1)C1CCCCC1` [LCL161], the drug sensitivity score was 0.2 DSS under setting [1], 0 DSS under setting [2] and 0.5 DSS under setting [3].
On the same counts, the results for `CS(=O)(=O)CCNCc1ccc(-c2ccc3ncnc(Nc4ccc(OCc5cccc(F)c5)c(Cl)c4)c3c2)o1` [Lapatinib] are 0 DSS, 0 DSS and 0.9 DSS.
`Oc1ccc2c(c1)CC[C@H](c1ccccc1)[C@@H]2c1ccc(OCCN2CCCC2)cc1` [Lasofoxifene]: the drug sensitivity score reads like this: under setting [1], 0.8 DSS; under setting [2], 0.7 DSS; under setting [3], 2 DSS.
As to `Nc1cccc2c1CN(C1CCC(=O)NC1=O)C2=O` (stereo not drawn) [Lenalidomide], the drug sensitivity score turned out to be 0 DSS under setting [1], 0.1 DSS under setting [2] and 2.3 DSS under setting [3].
Regarding `COc1cc2nccc(Oc3ccc(NC(=O)NC4CC4)c(Cl)c3)c2cc1C(N)=O` [Lenvatinib], the drug sensitivity score was found to be 1.8 DSS under setting [1], 1.3 DSS under setting [2] and 2.1 DSS under setting [3].
Turning to `C[C@]12O[C@H](C[C@]1(O)CO)n1c3ccccc3c3c4c(c5c6ccccc6n2c5c31)CNC4=O` [Lestaurtinib], the drug sensitivity score is 6.8 DSS under setting [1], 7.1 DSS under setting [2] and 8.3 DSS under setting [3].
The like results for `N#Cc1ccc(C(c2ccc(C#N)cc2)n2cncn2)cc1` [Letrozole] were, in that order, 0 DSS, 0 DSS and 0.1 DSS.
Take `c1ccc([C@H]2CN3CCSC3=N2)cc1` [Levamisole]: the drug sensitivity score reads like this: under setting [1], 0 DSS; under setting [2], 0 DSS; under setting [3], 0 DSS.
Consider `Cc1ccc(F)c(NC(=O)Nc2ccc(-c3cccc4[nH]nc(N)c34)cc2)c1` [Linifanib], for which the drug sensitivity score amounted to 0 DSS under setting [1], 0 DSS under setting [2] and 0 DSS under setting [3].
Take `C[C@]1(O)C[C@@H](c2nc(-c3ccc4ccc(-c5ccccc5)nc4c3)c3c(N)nccn32)C1` [Linsitinib]: the drug sensitivity score by setting is: under setting [1], 0 DSS; under setting [2], 0.1 DSS; under setting [3], 0.2 DSS.
The like results for `Nc1nc(OCc2cc(Br)cs2)c2[nH]cnc2n1` [Lomeguatrib] were, in that order, 0 DSS, 1.9 DSS and 0.5 DSS.
On the same counts, the results for `O=NN(CCCl)C(=O)NC1CCCCC1` [Lomustine] are 0 DSS, 0 DSS and 0 DSS.
The like results for `NC(=O)N1CCC(CC(=O)N2CCC([C@H]3c4ncc(Br)cc4CCc4cc(Cl)cc(Br)c43)CC2)CC1` [Lonafarnib] were, in that order, 6.9 DSS, 8.8 DSS and 4.9 DSS.
As for `Cc1c(F)cc(C(=O)NC2CC2)cc1-c1ccc(C(=O)NCC(C)(C)C)cn1` [Losmapimod], the drug sensitivity score turned out to be 0 DSS under setting [1], 0 DSS under setting [2] and 0 DSS under setting [3].
In the case of `CC[C@H](C)C(=O)O[C@H]1C[C@@H](C)C=C2C=C[C@H](C)[C@H](CC[C@@H]3C[C@@H](O)CC(=O)O3)[C@H]21` [Lovastatin], the drug sensitivity score is 0 DSS under setting [1] and 0 DSS under setting [3].
Regarding `CNC(=O)c1cccc2cc(Oc3ccnc4cc(OCC5(N)CC5)c(OC)cc34)ccc12` [Lucitanib], the drug sensitivity score by setting is: under setting [1], 2.3 DSS; under setting [2], 0.6 DSS; under setting [3], 3 DSS.
With `CCNC(=O)c1noc(-c2cc(C(C)C)c(O)cc2O)c1-c1ccc(CN2CCOCC2)cc1` [Luminespib], the drug sensitivity score was 15.3 DSS under setting [1], 15.4 DSS under setting [2] and 15.7 DSS under setting [3].
The like results for `C=CCn1c(=O)c2cnc(Nc3ccc(N4CCN(C)CC4)cc3)nc2n1-c1cccc(C(C)(C)O)n1` [MK1775] were, in that order, 13.5 DSS, 11.5 DSS and 11.9 DSS.
As to `O=C(O)CC[C@H]1CC[C@@](c2cc(F)ccc2F)(S(=O)(=O)c2ccc(Cl)cc2)CC1` [MK-0752], the drug sensitivity score worked out at 0.7 DSS under setting [1], 0 DSS under setting [2] and 0 DSS under setting [3].
Consider `NC1(c2ccc(-c3nc4ccn5c(=O)[nH]nc5c4cc3-c3ccccc3)cc2)CCC1` [MK-2206], for which the drug sensitivity score came to 3.5 DSS under setting [1], 4.4 DSS under setting [2] and 3.6 DSS under setting [3].
`CN(C[C@@H]1COCCO1)S(=O)(=O)Nc1ccc2ccc3ncc(-c4cnn(C)c4)cc3c(=O)c2c1` [MK-2461] registered a drug sensitivity score under setting [1] of 0.6 DSS, a drug sensitivity score under setting [2] of 0 DSS and a drug sensitivity score under setting [3] of 0.3 DSS.
As for `O=C(c1cccc(Cl)c1F)N1CCN(Cc2cccc(Nc3nccs3)n2)CC1` [MK-8745], the drug sensitivity score under setting [1] came out at 1.7 DSS and the drug sensitivity score under setting [3] is 1.9 DSS.
With `Cn1cc(-c2cnn3c(N)c(Br)c([C@@H]4CCCNC4)nc23)cn1` [MK-8776], the drug sensitivity score by setting is: under setting [1], 0.9 DSS; under setting [2], 0.1 DSS; under setting [3], 2.2 DSS.
The like results for `Cc1cnc(-c2ccccc2C(C)C)nc1NCc1ccc(-n2ccnn2)cc1` [ML323] were, in that order, 0 DSS, 1.4 DSS and 4.4 DSS.
Regarding `CC(C)n1nc(-c2ccc3oc(N)nc3c2)c2c(N)ncnc21` [MLN-0128], the drug sensitivity score came to 14 DSS under setting [1], 12.3 DSS under setting [2] and 9.8 DSS under setting [3].
The compound `O=C(O)c1ccc(Nc2ncc3c(n2)-c2ccc(Cl)cc2C(c2c(F)cccc2F)=NC3)cc1` [MLN-8054] gave a drug sensitivity score under setting [1] of 6.3 DSS and a drug sensitivity score under setting [3] of 6.5 DSS.
In the case of `O=C(Nc1cccc(NC(=O)c2cccc(O)c2O)c1)c1cccc(O)c1O` [MST-312], the drug sensitivity score was determined as 7.6 DSS under setting [1], 5.2 DSS under setting [2] and 8.2 DSS under setting [3].
The like results for `CNC(=O)[C@@H](NC(=O)[C@H](CC(C)C)[C@H](O)C(=O)NO)C(C)(C)C` [Marimastat] were, in that order, 0 DSS, 0 DSS and 0 DSS.
As to `Cc1ccc(NC(=O)c2ccc(CN3CCN(C)CC3)cc2)cc1Nc1nc(-c2cccnc2)cs1` [Masitinib], the drug sensitivity score under setting [1] came out at 3.1 DSS, the drug sensitivity score under setting [2] came to 3.4 DSS and the drug sensitivity score under setting [3] came to 4.6 DSS.
On the same counts, the results for `CC(=O)O[C@]1(C(C)=O)CC[C@H]2[C@@H]3C=C(C)C4=CC(=O)CC[C@]4(C)[C@H]3CC[C@@]21C` [Megestrol acetate] are 0 DSS, 0 DSS and 0 DSS.
Consider `N[C@@H](Cc1ccc(N(CCCl)CCCl)cc1)C(=O)O` [Melphalan], for which the drug sensitivity score turned out to be 0 DSS under setting [1] and 0 DSS under setting [3].
Turning to `CCN(CC)CCCC(C)Nc1c2ccc(Cl)cc2nc2ccc(OC)cc12` (stereo not drawn) [Mepacrine], the drug sensitivity score is 21.5 DSS under setting [1] and 21.5 DSS under setting [3].
Turning to `S=c1[nH]cnc2nc[nH]c12` [Mercaptopurine], the drug sensitivity score under setting [1] came to 9.7 DSS, the drug sensitivity score under setting [2] is 5.3 DSS and the drug sensitivity score under setting [3] came out at 6.3 DSS.
Turning to `Cc1ccc(C(=O)Nc2ccc(Oc3cc4cnn(C)c4cc3-c3cn[nH]c3)c(F)c2)c(=O)n1-c1ccc(F)cc1` [Merestinib], the drug sensitivity score reads like this: under setting [1], 4.5 DSS; under setting [2], 5.4 DSS; under setting [3], 4.3 DSS.
For `CN(C)C(=N)NC(=N)N` [Metformin], the drug sensitivity score is, setting by setting: under setting [1], 0 DSS; under setting [3], 1 DSS.
